Read-outs that look alike come from different tables or passages of the source.
Key:
[1] = Stability of the radioiodinated product in column eluate (60% ethanol) at -20° C; assay type: physicochemical
Description: The method is the same as for the labelling of (14').
The starting material is the derivative (15').
The HPLC separation conditions are different: the mobile phase is 60% ethanol in water, the flow rate is 1 ml/min, the final product is collected at 12 minutes. The labeled product is kept as such in the column eluate (60% ethanol). In these conditions, it is stable for at least 12 days at -20° C. (deiodination less than 2%).

[2] = Hydrophobicity index based on retention time in reverse phase HPLC; assay type: physicochemical; design: retention time (hydrophobicity index): dose or concentration left out as unconfirmed; conditions: for retention time (hydrophobicity index): HPLC reverse phase, microBondapack C18, 1 ml/min of ethanol in H2O
[3] = Biodistribution of 125I-labeled Z isomer (16') in ovarectomized BDF1 mice; assay type: in vivo; conditions: for tissue uptake at 2 h / tissue uptake at 24 h: mouse, 1 uCi, 1 μCi 125I, ± S.D.
Description: The biodistribution of the Z isomer (16') in ovarectomized BDF mice is highly favorable.
8 ovarectomized BDF1 mice were injected with 1 μCi of 11beta-chloromethyl-17alpha-(2-iodovinyl)estradiol-(^125 I). 4 mice were sacrificed 2 hours after the estradiolinjection and 4 24 hours after the injection.

estrogen receptor = target: T1, estrogen receptor (Bos taurus, UniProt P49884); assay: Tests of binding of calf uterus cytosol to the estrogen receptor
T1 sequence (P49884 1-596): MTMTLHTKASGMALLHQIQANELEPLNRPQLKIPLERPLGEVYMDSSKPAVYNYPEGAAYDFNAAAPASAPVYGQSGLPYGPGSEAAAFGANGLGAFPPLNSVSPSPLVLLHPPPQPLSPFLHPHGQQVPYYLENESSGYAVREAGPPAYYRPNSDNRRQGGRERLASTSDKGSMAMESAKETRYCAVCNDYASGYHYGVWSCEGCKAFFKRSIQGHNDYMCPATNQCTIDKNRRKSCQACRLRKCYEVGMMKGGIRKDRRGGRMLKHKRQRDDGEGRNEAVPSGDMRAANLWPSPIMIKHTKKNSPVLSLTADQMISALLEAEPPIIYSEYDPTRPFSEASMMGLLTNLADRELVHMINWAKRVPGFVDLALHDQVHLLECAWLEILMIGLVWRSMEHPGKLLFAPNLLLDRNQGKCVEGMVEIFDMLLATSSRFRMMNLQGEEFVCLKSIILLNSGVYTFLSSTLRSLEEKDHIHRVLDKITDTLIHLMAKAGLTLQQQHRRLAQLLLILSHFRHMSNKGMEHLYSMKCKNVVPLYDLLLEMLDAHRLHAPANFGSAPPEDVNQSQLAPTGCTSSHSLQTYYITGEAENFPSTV
Text: The nonspecific binding to the transport proteins is diminished by virtue of the presence of the 11-beta and 17-alpha groups.

estrogen receptors = target: T2, estrogen receptors (Homo sapiens, UniProt P03372); assay: Inhibition of the fixation of tritiated estradiol on cytosols of MCF7 mammary human tumor; assay type: binding; conditions: 25° C, MCF7 cytosol
T2 construct: cytosols of MCF7 mammary human tumor rich in estrogen receptors; endogenous in cells; host or cells: MCF7 human mammary tumor, cytosol
T2 sequence (P03372 1-595): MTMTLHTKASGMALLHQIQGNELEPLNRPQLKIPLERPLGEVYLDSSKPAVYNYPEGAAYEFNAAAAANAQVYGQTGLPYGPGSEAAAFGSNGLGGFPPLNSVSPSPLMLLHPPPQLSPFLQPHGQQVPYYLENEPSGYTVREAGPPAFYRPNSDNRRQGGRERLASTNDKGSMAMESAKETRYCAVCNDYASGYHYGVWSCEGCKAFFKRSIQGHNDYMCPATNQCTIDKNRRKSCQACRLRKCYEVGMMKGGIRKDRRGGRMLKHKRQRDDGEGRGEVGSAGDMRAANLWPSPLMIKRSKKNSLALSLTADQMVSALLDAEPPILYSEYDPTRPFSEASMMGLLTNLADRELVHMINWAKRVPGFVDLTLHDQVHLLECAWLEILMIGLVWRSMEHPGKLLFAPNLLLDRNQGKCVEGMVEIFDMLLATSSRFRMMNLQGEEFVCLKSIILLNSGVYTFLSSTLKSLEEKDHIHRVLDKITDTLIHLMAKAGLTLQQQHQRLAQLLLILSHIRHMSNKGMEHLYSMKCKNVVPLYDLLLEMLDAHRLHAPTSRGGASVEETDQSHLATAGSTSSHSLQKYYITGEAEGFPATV

[4] = test system: MXT syngenetic mammary tumors; assay: Targeted radiotherapy of female BDF1 mice grafted with MXT syngenetic mammary tumors; assay type: in vivo
Description: (§1) Twenty nine female BDF1 mice were grafted with MXT syngenetic mammary tumors implanted subcutaneously. Fourteen mice received three intravenous injections of 100 μCi of 11beta-chloromethyl-17-iodovinyl- ^123 I of E isomerism at fortnightly intervals.
(§2) The 100 μCi of labeled hormone were injected diluted in 200 μl of solution containing 9 g/l NaCl, 5% ethanol and 1% of Tween 80. The fifteen control mice received 200 μl of the NaCl/ethanol/Tween solution on the same dates.

[5] = Acute toxicity in mice grafted with MXT mammary tumors; assay type: in vivo, female BDF1 mice; conditions: three i.v. injections of 100 μCi at fortnightly intervals, period of 60 days
Description: as §1, §2

[6] = rat, in vivo, 1440 min; cited from earlier work
[7] = blood, read-out: % injected dose/g of tissue, blood
[8] = fat, read-out: % injected dose/g of tissue, fat
[9] = kidneys, read-out: % injected dose/g of tissue, kidneys
[10] = liver, read-out: % injected dose/g of tissue, liver
[11] = muscle, read-out: % injected dose/g of tissue, muscle
[12] = spleen, read-out: % injected dose/g of tissue, spleen
[13] = uterus, read-out: % injected dose/g of tissue, uterus

Compound: C[C@]12C[C@H](CCl)[C@@H]3c4ccc(O)cc4CC[C@H]3[C@@H]1CC[C@@]2(O)/C=C\I [16', (Z)-11beta-chloromethyl-3,17beta-dihydroxy17alpha-(2-iodovinyl)-1,3,5(10)-estratriene]
- degraded at 288 h ([1]; 60% ethanol): < 2%
- stable for at least (storage stability of labeled product) ([1]; column eluate (60% ethanol), -20° C): at least 12 days
- retention time (hydrophobicity index) [2]: 12.1 min
- hydrophobicity, Z isomer versus E isomer (in words) ([2]; comparison of Z with E isomer): less hydrophobic than the E isomer
- uterus/blood concentration ratio ([3]; 2 h): 6.16
- uterus/fat concentration ratio ([3]; 2 h): 2.90
- uterus/liver concentration ratio ([3]; 2 h): 1.30
- uterus/muscle concentration ratio ([3]; 2 h): 7.48
- uterus/blood concentration ratio ([3]; 24 h): 65.80
- uterus/fat concentration ratio ([3]; 24 h): 35.42
- uterus/liver concentration ratio ([3]; 24 h): 10.12
- uterus/muscle concentration ratio ([3]; 24 h): 92.10
- tissue uptake at 2 h [3, 7]: 1.08 ± 0.24 %ID/g
- tissue uptake at 24 h [3, 7]: 0.14 ± 0.02 %ID/g
- tissue uptake at 2 h [3, 8]: 2.29 ± 0.25 %ID/g
- tissue uptake at 24 h [3, 8]: 0.26 ± 0.09 %ID/g
- tissue uptake at 2 h [3, 9]: 1.84 ± 0.27 %ID/g
- tissue uptake at 24 h [3, 9]: 0.2 ± 0.02 %ID/g
- tissue uptake at 2 h [3, 10]: 5.1 ± 0.72 %ID/g
- tissue uptake at 24 h [3, 10]: 0.91 ± 0.05 %ID/g
- tissue uptake at 2 h [3, 11]: 0.89 ± 0.07 %ID/g
- tissue uptake at 24 h [3, 11]: 0.1 %ID/g
- tissue uptake at 2 h [3, 12]: 0.97 ± 0.18 %ID/g
- tissue uptake at 24 h [3, 12]: 0.12 ± 0.01 %ID/g
- tissue uptake at 2 h [3, 13]: 6.66 ± 0.91 %ID/g
- tissue uptake at 24 h [3, 13]: 9.21 ± 1.44 %ID/g
- binding to the estrogen receptor (in words) (estrogen receptor; 25° C, 1 h, final 5 mM, versus tritiated estradiol): binding of the same order as the tritiated estradiol
- nonspecific binding (estrogen receptor; 25° C, 1 h, saturating dose (final 5 mM), calf uterus cytosol): 23%
- nonspecific binding to the transport proteins (in words) (estrogen receptor; versus tritiated estradiol): diminished
- sensitivity level (in words) (estrogen receptor; versus tritiated estradiol, by virtue of the higher specific activity): higher sensitivity level

Compound: C[C@]12C[C@H](CCl)[C@@H]3c4ccc(O)cc4CC[C@H]3[C@@H]1CC[C@@]2(O)C=CI [11beta-chloromethyl-17-iodovinylestradiol]
- affinity (in words) (estrogen receptors): an affinity comparable with that of 11beta-chloromethylestradiol and clearly superior to that of estradiol
- relative binding affinity (estrogen receptors; versus estradiol): greater than 1,000

Compound: C[C@]12C[C@H](CCl)[C@@H]3c4ccc(O)cc4CC[C@H]3[C@@H]1CC[C@@]2(O)/C=C/[123I] [11beta-chloromethyl-17-iodovinyl- ^123 I of E isomerism, 11Beta-Chloromethyl-17-Iodovinylestradiol-^123 I]
- tumor growth compared with the control group, % of the average tumor growth ([4]; day 18, three i.v. injections of 100 μCi at fortnightly intervals): lower than 45%
- tumor growth compared with the control group (in words) ([4]; three i.v. injections of 100 μCi at fortnightly intervals): significant slowing down of the tumor growth
- survival ([4]; versus control group): better survival
- acute toxicity [5]: No acute toxicity was detected

Compound: C[C@]12C[C@H](CCl)[C@@H]3c4ccc(O)cc4CC[C@H]3[C@@H]1CC[C@@]2(O)/C=C/I [14', (E)-11-chloromethyl-3,17β-dihydroxy-17α-(2iodovinyl)-1,3,5(10)-estratriene]
- retention time (hydrophobicity index) [2]: 14.3 min

Compound: CCC1C[C@@]2(C)[C@@H](CCC2(O)C=C[125I])[C@@H]2CCc3cc(O)ccc3[C@@H]12 (stereo partly shown) [I-125 17-iodovinyl-11-ethylestradiol, 17-iodovinyl-11-ethylestradiol]
- uterus/blood ratio [6]: 40.4
- uterus/liver ratio [6]: 3.89
- uterus/lung ratio [6]: 52.8

From patent publication US5002753A, “Specific ligands for estrogen and progestagen steroid hormone receptors, application and intermediate synthesis products” (IRE-Celltarg S.A., priority 1988, dated 1991)
